# Laboratory results: PMC3192407, “Both Basic and Acidic Amino Acid Residues of IpTxa Are Involved in Triggering Substate of RyR1” (Journal of Biomedicine and Biotechnology, 2011)
# Bridge positions count the residues as written; N and C are the ends. Peptide text beside a SMILES is read from it.
# Biological target: T1, rabbit skeletal RyR1 (native RyR1 in HSR) (Oryctolagus cuniculus, UniProt P11716)
# T1 construct: tested using native RyR1 in rabbit skeletal HSR; from tissue; host or cells: rabbit fast-twitch back and leg muscles (heavy SR vesicles)
# Test: Planar lipid bilayer single-channel recording, native RyR1 in HSR
# Assay type: biochemical
# Details: native RyR1 (Figure 2(b)); Figure 5(b), purified RyR1, also cited in sentence
# Method: A heavy fraction of fragmented SR vesicles (HSR) containing junctional SR was prepared from rabbit fast-twitch back and leg muscles as described previously.
# Single-channel recordings of rabbit skeletal RyR1 incorporated into planar lipid bilayers were carried out as described previously. Lipid bilayers, consisting of brain tissue phosphatidylethanolamine and phosphatidylserine (1 : 1) in decane (20 mg/mL) were formed across a hole of approximately 200 μm diameter. Thinning of the bilayer was monitored by bilayer capacitance. The basic composition of the cis/trans solution consisted of 300 mM cesium methanesulfonate, 10 mM Tris/Hepes (pH 7.2), 2 mM EGTA, and 1.998 mM CaCl2 ([Ca^2+]free = 10 μM). [Ca^2+]free was calculated using the “Chelator” program (Theo Schoenmaker). Cs^+ was selected as the charge carrier to ensure precise control of free [Ca^2+], to increase the channel conductance, and to avoid any contribution from potassium channels present in the SR membrane. Chloride channels were inhibited by using the impermeant anion methanesulfonate. Incorporation of ion channels was carried out as described by Miller and Racker and confirmed by recording the characteristically high single-channel conductance of RyRs. The trans side was maintained at ground and the cis side was clamped at −30 mV relative to the ground. After addition of the IpTxa to the cis chamber, the single channel data were collected at −30 mV for 2–5 min. […] Recordings were filtered with an 8-pole low-pass Bessel filter at 1 kHz and digitalized through a Digidata 1200 series interface (Axon Instruments). Data acquisition and analysis were done with the Axon Instruments software, pClamp v7.0.
# Data were analyzed using the Hill equation described previously:
# (1) Psubstate=(Psubstate, max )/[1+(EC50/[IpTxa])^nH] orPo=(Po, max )/[1+(EC50/[IpTxa])^nH], where (Po, max ) is the Po observed at saturating concentrations of IpTxa, EC50 is the IpTxa concentration for which 50% of Po, max is obtained and nH is the Hill coefficient. Also, Psubstate, max is the Psubstate observed at saturating concentrations of IpTxa, EC50 is the IpTxa concentration for which 50% of Psubstate, max is obtained, and nH is the Hill coefficient. The probability of full open state of the channel (Po) was defined as the ratio of the time spent in the open state to the total time exclusive of time spent in the substate. The probability to obtain substate (Psubstate) was calculated as the time spent in the substate divided by a given total recording time. The durations of the substate were obtained by manual positioning of the cursors and constructing all point histograms. Mean duration of substate was measured by total substate time divided by total substate frequencies.
# Results are given as means ± SE. Significant differences were analyzed using Student's t-test. Differences were considered to be significant when P < 0.05. The fitting of the data to the graphs were carried out using the software, Origin v7.
# To examine how IpTxa modifies RyR1 activity, RyR1 in HSR incorporated in planar lipid bilayers was tested in the presence or absence of synthetic wild-type IpTxa. The chamber solutions for both cis (cytosolic) and trans (luminal) sides included 300 mM cesium methanesulfonate and 10 mM Tris-Hepes (pH 7.2). 10 μM free Ca^2+ was added to the cis side to activate the incorporated RyR1. After an addition of IpTxa to the cis chamber, the single channel gating properties were recorded at a holding potential of −30 mV for over 2 min at each toxin concentration. […] To examine the effects of IpTxa on full open state, we calculated the probability to obtain the full open state (Po) as the time spent in the open state divided by the total time exclusive of the time spent in the substate. The time for recorded Po was in the range of 30 s–2 min. […] The steady-state Po was 0.18 ± 0.02 at 10 μM Ca^2+. […]
# T1 sequence (P11716 whole entry): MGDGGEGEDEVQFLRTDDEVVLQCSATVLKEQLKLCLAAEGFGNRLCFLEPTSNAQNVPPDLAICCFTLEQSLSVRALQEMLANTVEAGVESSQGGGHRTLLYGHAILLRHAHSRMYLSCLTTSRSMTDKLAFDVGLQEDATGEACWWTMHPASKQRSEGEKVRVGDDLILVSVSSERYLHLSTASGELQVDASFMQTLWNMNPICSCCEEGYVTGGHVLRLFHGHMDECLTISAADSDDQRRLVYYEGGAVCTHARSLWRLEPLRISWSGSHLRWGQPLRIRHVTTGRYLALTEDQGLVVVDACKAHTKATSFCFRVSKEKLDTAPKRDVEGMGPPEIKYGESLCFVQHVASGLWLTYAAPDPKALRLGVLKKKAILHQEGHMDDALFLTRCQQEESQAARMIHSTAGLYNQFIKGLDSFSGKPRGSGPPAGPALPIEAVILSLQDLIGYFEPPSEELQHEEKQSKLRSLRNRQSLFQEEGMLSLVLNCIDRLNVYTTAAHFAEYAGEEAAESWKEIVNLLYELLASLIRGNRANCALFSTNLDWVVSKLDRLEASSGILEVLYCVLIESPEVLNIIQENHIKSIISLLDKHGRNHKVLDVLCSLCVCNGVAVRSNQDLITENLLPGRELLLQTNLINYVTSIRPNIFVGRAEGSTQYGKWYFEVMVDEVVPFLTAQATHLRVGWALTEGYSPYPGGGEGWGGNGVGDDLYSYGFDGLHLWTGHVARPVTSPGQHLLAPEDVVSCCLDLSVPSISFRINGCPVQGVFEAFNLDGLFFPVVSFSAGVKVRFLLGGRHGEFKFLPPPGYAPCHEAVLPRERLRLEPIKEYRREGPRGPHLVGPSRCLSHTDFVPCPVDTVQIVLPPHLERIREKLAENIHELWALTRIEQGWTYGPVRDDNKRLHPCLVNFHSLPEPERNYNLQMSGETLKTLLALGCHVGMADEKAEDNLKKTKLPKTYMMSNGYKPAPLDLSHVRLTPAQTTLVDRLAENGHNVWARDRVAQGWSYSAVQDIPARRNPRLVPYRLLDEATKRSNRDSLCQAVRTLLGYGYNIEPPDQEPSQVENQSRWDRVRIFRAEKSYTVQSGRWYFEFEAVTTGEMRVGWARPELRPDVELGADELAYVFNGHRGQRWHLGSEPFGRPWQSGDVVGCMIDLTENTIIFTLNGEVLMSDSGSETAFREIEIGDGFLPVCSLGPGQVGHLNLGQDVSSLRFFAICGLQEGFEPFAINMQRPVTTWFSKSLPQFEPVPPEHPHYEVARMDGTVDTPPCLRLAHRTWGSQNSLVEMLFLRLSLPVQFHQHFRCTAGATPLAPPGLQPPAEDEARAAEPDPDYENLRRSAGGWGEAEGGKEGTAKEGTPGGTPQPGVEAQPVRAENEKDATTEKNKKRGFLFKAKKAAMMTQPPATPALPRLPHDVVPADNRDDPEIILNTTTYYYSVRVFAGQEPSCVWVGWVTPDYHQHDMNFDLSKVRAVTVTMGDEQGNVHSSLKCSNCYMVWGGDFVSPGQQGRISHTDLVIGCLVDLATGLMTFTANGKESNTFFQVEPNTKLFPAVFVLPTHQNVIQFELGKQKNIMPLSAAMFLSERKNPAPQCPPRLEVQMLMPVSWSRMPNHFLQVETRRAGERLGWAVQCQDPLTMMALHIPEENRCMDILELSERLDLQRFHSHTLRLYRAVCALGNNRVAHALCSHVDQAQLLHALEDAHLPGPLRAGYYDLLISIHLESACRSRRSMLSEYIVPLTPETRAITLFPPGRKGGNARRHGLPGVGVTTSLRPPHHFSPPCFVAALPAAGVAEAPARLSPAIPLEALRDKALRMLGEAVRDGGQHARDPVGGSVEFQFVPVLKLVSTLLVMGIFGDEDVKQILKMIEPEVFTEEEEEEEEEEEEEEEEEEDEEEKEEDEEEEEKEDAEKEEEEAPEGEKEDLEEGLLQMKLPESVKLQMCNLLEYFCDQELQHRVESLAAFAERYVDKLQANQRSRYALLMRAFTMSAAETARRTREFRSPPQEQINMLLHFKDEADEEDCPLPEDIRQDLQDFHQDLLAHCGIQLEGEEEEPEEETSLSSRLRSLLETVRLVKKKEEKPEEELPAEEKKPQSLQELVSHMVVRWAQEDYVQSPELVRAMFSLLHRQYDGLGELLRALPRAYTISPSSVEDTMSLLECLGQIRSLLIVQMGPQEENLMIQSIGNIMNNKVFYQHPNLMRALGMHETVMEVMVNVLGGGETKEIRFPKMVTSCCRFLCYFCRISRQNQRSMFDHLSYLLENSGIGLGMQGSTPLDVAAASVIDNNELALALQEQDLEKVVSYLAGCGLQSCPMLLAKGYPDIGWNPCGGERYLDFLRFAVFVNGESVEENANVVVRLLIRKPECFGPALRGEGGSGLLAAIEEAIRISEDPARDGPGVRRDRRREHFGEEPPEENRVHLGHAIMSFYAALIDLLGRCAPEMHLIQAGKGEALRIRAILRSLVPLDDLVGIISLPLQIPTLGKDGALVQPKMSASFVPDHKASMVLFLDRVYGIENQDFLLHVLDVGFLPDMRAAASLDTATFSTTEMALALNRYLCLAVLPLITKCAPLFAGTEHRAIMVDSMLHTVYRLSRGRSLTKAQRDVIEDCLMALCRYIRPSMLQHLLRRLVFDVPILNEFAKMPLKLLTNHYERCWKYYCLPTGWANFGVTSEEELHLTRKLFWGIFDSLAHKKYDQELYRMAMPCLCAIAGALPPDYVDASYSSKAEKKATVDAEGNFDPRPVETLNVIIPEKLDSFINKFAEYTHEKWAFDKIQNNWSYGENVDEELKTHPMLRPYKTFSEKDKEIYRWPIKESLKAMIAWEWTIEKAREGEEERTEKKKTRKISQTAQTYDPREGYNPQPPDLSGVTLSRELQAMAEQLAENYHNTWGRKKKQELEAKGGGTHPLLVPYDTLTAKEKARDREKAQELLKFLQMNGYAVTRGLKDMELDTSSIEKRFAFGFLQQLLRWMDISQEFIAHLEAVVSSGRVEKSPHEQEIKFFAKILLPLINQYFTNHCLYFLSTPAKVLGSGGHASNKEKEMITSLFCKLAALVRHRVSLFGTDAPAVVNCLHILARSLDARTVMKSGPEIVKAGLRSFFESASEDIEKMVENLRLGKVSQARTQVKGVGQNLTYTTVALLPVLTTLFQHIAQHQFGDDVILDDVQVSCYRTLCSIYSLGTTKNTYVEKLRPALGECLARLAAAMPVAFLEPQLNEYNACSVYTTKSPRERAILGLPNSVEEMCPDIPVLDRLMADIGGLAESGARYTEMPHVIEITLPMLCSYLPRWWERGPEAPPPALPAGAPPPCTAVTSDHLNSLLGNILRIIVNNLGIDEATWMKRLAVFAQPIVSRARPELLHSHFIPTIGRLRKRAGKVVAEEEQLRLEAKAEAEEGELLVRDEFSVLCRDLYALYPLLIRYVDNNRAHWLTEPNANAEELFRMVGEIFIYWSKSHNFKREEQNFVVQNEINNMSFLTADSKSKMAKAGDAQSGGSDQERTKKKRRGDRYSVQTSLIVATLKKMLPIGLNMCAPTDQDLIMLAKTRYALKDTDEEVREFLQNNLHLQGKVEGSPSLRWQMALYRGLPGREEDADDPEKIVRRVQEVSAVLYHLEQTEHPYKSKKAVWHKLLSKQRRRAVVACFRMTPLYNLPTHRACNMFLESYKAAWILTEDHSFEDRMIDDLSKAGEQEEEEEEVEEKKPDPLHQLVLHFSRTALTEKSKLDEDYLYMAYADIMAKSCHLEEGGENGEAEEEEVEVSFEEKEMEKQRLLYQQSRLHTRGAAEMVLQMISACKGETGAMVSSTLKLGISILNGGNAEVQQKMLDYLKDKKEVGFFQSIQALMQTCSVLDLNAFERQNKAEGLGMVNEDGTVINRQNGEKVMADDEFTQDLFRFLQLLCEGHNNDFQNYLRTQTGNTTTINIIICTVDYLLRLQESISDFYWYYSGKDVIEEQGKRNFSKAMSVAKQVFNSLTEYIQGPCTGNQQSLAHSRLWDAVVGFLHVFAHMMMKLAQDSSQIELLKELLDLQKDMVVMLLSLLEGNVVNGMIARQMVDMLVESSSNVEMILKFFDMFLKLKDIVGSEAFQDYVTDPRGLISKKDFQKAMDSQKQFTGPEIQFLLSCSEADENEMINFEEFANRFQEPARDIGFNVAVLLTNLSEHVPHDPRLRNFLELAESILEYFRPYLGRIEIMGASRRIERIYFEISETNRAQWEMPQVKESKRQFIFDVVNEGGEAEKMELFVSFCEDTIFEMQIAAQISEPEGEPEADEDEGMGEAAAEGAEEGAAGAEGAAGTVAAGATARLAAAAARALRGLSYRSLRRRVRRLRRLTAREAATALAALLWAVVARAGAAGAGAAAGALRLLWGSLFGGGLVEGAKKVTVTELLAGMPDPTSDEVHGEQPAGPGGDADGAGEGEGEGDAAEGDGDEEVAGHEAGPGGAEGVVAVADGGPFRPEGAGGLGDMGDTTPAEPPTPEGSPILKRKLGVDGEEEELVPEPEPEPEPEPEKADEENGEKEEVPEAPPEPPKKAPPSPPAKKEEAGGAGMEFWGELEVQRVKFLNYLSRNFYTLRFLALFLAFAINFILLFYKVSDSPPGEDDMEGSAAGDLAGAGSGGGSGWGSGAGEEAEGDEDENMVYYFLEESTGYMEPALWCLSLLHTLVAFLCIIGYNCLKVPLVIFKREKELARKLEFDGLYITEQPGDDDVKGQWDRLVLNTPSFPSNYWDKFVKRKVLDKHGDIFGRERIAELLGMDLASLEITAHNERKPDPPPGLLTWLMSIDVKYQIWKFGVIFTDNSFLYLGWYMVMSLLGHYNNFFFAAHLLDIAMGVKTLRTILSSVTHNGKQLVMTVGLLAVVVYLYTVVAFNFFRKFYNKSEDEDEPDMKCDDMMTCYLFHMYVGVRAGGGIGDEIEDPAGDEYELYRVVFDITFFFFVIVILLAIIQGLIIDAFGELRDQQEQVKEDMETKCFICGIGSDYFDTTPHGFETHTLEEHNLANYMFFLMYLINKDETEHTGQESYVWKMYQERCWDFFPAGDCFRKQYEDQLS
row,Structure (SMILES),EC50 of Psubstate compared with wild type (in words)
1,"CC(C)C[C@@H]1NC(=O)[C@H](Cc2c[nH]cn2)NC(=O)[C@@H]2CCCN2C(=O)[C@H](CC(C)C)NC(=O)[C@@H](NC(=O)[C@H](CC(=O)O)NC(=O)CN)CSSC[C@@H]2NC(=O)[C@@H]3CSSC[C@@H](C(=O)N[C@@H](CCCNC(=N)N)C(=O)O)NC(=O)[C@H](CCCNC(=N)N)NC(=O)[C@H](CCCCN)NC(=O)[C@H](CCC(=O)O)NC(=O)[C@H](C)NC(=O)[C@H](CC(N)=O)NC(=O)[C@H](C)NC(=O)CNC(=O)[C@H](CCCNC(=N)N)NC(=O)[C@H](CCCNC(=N)N)NC(=O)[C@H](CCCCN)NC(=O)[C@H](CSSC[C@H](NC(=O)[C@H](CCCNC(=N)N)NC(=O)[C@H](CCCCN)NC1=O)C(=O)N[C@@H](CCCCN)C(=O)N[C@@H](C)C(=O)N[C@@H](CC(=O)O)C(=O)N[C@@H](CC(N)=O)C(=O)N[C@@H](CC(=O)O)C(=O)N3)NC(=O)[C@H](CCCCN)NC(=O)[C@H](CCCCN)NC(=O)CNC2=O [T26A] (H-GDCLPHLKRCKADNDCCGKKCKRRGANAEKRCR-OH; disulfide 3-17, 10-21, 16-32)",dramatically decreased EC50 of Psubstate

# Same assay, conditions: native RyR1 in SR, toxin cis, 6-100 nM, -30 mV, [Ca^2+]free 10 μM, pH 7.2, Hill fit, means ± SE of 3–9 experiments; read-out: EC50 for Psubstate
row,Structure (SMILES),EC50
1,"CC(C)C[C@@H]1NC(=O)[C@H](Cc2c[nH]cn2)NC(=O)[C@@H]2CCCN2C(=O)[C@H](CC(C)C)NC(=O)[C@@H](NC(=O)[C@H](CC(=O)O)NC(=O)CN)CSSC[C@@H]2NC(=O)[C@@H]3CSSC[C@@H](C(=O)N[C@@H](CCCNC(=N)N)C(=O)O)NC(=O)[C@H](CCCNC(=N)N)NC(=O)[C@H](CCCCN)NC(=O)[C@H](CCC(=O)O)NC(=O)[C@H](C)NC(=O)[C@H](CC(N)=O)NC(=O)[C@H]([C@@H](C)O)NC(=O)CNC(=O)[C@H](CCCNC(=N)N)NC(=O)[C@H](CCCNC(=N)N)NC(=O)[C@H](CCCCN)NC(=O)[C@H](CSSC[C@H](NC(=O)[C@H](CCCNC(=N)N)NC(=O)[C@H](CCCCN)NC1=O)C(=O)N[C@@H](CCCCN)C(=O)N[C@@H](C)C(=O)N[C@@H](CC(=O)O)C(=O)N[C@@H](CC(N)=O)C(=O)N[C@@H](CC(=O)O)C(=O)N3)NC(=O)[C@H](C)NC(=O)[C@H](CCCCN)NC(=O)CNC2=O [K20A] (H-GDCLPHLKRCKADNDCCGKACKRRGTNAEKRCR-OH; disulfide 3-17, 10-21, 16-32)",18.5 ± 8.17 nM
2,"CC(C)C[C@@H]1NC(=O)[C@H](Cc2c[nH]cn2)NC(=O)[C@@H]2CCCN2C(=O)[C@H](CC(C)C)NC(=O)[C@@H](NC(=O)[C@H](CC(=O)O)NC(=O)CN)CSSC[C@@H]2NC(=O)[C@@H]3CSSC[C@@H](C(=O)N[C@@H](CCCNC(=N)N)C(=O)O)NC(=O)[C@H](CCCNC(=N)N)NC(=O)[C@H](CCCCN)NC(=O)[C@H](CCC(=O)O)NC(=O)[C@H](C)NC(=O)[C@H](CC(N)=O)NC(=O)[C@H]([C@@H](C)O)NC(=O)CNC(=O)[C@H](CCCNC(=N)N)NC(=O)[C@H](CCCNC(=N)N)NC(=O)[C@H](C)NC(=O)[C@H](CSSC[C@H](NC(=O)[C@H](CCCNC(=N)N)NC(=O)[C@H](CCCCN)NC1=O)C(=O)N[C@@H](CCCCN)C(=O)N[C@@H](C)C(=O)N[C@@H](CC(=O)O)C(=O)N[C@@H](CC(N)=O)C(=O)N[C@@H](CC(=O)O)C(=O)N3)NC(=O)[C@H](CCCCN)NC(=O)[C@H](CCCCN)NC(=O)CNC2=O [K22A] (H-GDCLPHLKRCKADNDCCGKKCARRGTNAEKRCR-OH; disulfide 3-17, 10-21, 16-32)",18.5 ± 2.88 nM
3,"CC(C)C[C@@H]1NC(=O)[C@H](Cc2c[nH]cn2)NC(=O)[C@@H]2CCCN2C(=O)[C@H](CC(C)C)NC(=O)[C@@H](NC(=O)[C@H](CC(=O)O)NC(=O)CN)CSSC[C@@H]2NC(=O)[C@@H]3CSSC[C@@H](C(=O)N[C@@H](CCCNC(=N)N)C(=O)O)NC(=O)[C@H](CCCNC(=N)N)NC(=O)[C@H](CCCCN)NC(=O)[C@H](CCC(=O)O)NC(=O)[C@H](C)NC(=O)[C@H](CC(N)=O)NC(=O)[C@H]([C@@H](C)O)NC(=O)CNC(=O)[C@H](CCCNC(=N)N)NC(=O)[C@H](CCCNC(=N)N)NC(=O)[C@H](CCCCN)NC(=O)[C@H](CSSC[C@H](NC(=O)[C@H](C)NC(=O)[C@H](CCCCN)NC1=O)C(=O)N[C@@H](CCCCN)C(=O)N[C@@H](C)C(=O)N[C@@H](CC(=O)O)C(=O)N[C@@H](CC(N)=O)C(=O)N[C@@H](CC(=O)O)C(=O)N3)NC(=O)[C@H](CCCCN)NC(=O)[C@H](CCCCN)NC(=O)CNC2=O [R9A] (H-GDCLPHLKACKADNDCCGKKCKRRGTNAEKRCR-OH; disulfide 3-17, 10-21, 16-32)",19.9 ± 3.16 nM
4,"CC(C)C[C@@H]1NC(=O)[C@H](Cc2c[nH]cn2)NC(=O)[C@@H]2CCCN2C(=O)[C@H](CC(C)C)NC(=O)[C@@H](NC(=O)[C@H](CC(=O)O)NC(=O)CN)CSSC[C@@H]2NC(=O)[C@@H]3CSSC[C@@H](C(=O)N[C@@H](CCCNC(=N)N)C(=O)O)NC(=O)[C@H](CCCNC(=N)N)NC(=O)[C@H](CCCCN)NC(=O)[C@H](CCC(=O)O)NC(=O)[C@H](C)NC(=O)[C@H](CC(N)=O)NC(=O)[C@H](C)NC(=O)CNC(=O)[C@H](CCCNC(=N)N)NC(=O)[C@H](CCCNC(=N)N)NC(=O)[C@H](CCCCN)NC(=O)[C@H](CSSC[C@H](NC(=O)[C@H](CCCNC(=N)N)NC(=O)[C@H](CCCCN)NC1=O)C(=O)N[C@@H](CCCCN)C(=O)N[C@@H](C)C(=O)N[C@@H](CC(=O)O)C(=O)N[C@@H](CC(N)=O)C(=O)N[C@@H](CC(=O)O)C(=O)N3)NC(=O)[C@H](CCCCN)NC(=O)[C@H](CCCCN)NC(=O)CNC2=O [T26A] (H-GDCLPHLKRCKADNDCCGKKCKRRGANAEKRCR-OH; disulfide 3-17, 10-21, 16-32)",9.98 ± 1.92 nM
5,"CC(C)C[C@@H]1NC(=O)[C@H](Cc2c[nH]cn2)NC(=O)[C@@H]2CCCN2C(=O)[C@H](CC(C)C)NC(=O)[C@@H](NC(=O)[C@H](CC(=O)O)NC(=O)CN)CSSC[C@@H]2NC(=O)[C@@H]3CSSC[C@@H](C(=O)N[C@@H](CCCNC(=N)N)C(=O)O)NC(=O)[C@H](CCCNC(=N)N)NC(=O)[C@H](CCCCN)NC(=O)[C@H](CCC(=O)O)NC(=O)[C@H](C)NC(=O)[C@H](CC(N)=O)NC(=O)[C@H]([C@@H](C)O)NC(=O)CNC(=O)[C@H](C)NC(=O)[C@H](CCCNC(=N)N)NC(=O)[C@H](CCCCN)NC(=O)[C@H](CSSC[C@H](NC(=O)[C@H](CCCNC(=N)N)NC(=O)[C@H](CCCCN)NC1=O)C(=O)N[C@@H](CCCCN)C(=O)N[C@@H](C)C(=O)N[C@@H](CC(=O)O)C(=O)N[C@@H](CC(N)=O)C(=O)N[C@@H](CC(=O)O)C(=O)N3)NC(=O)[C@H](CCCCN)NC(=O)[C@H](CCCCN)NC(=O)CNC2=O [R24A] (H-GDCLPHLKRCKADNDCCGKKCKRAGTNAEKRCR-OH; disulfide 3-17, 10-21, 16-32)",26 ± 7.01 nM
6,"CC(C)C[C@@H]1NC(=O)[C@H](Cc2c[nH]cn2)NC(=O)[C@@H]2CCCN2C(=O)[C@H](CC(C)C)NC(=O)[C@@H](NC(=O)[C@H](CC(=O)O)NC(=O)CN)CSSC[C@@H]2NC(=O)[C@@H]3CSSC[C@@H](C(=O)N[C@@H](CCCNC(=N)N)C(=O)O)NC(=O)[C@H](CCCNC(=N)N)NC(=O)[C@H](CCCCN)NC(=O)[C@H](CCC(=O)O)NC(=O)[C@H](C)NC(=O)[C@H](CC(N)=O)NC(=O)[C@H]([C@@H](C)O)NC(=O)CNC(=O)[C@H](CCCNC(=N)N)NC(=O)[C@H](CCCNC(=N)N)NC(=O)[C@H](CCCCN)NC(=O)[C@H](CSSC[C@H](NC(=O)[C@H](CCCNC(=N)N)NC(=O)[C@H](CCCCN)NC1=O)C(=O)N[C@@H](CCCCN)C(=O)N[C@@H](C)C(=O)N[C@@H](CC(=O)O)C(=O)N[C@@H](CC(N)=O)C(=O)N[C@@H](CC(=O)O)C(=O)N3)NC(=O)[C@H](CCCCN)NC(=O)[C@H](C)NC(=O)CNC2=O [K19A] (H-GDCLPHLKRCKADNDCCGAKCKRRGTNAEKRCR-OH; disulfide 3-17, 10-21, 16-32)",21.8 ± 6.47 nM
7,"CC(C)C[C@@H]1NC(=O)[C@H](Cc2c[nH]cn2)NC(=O)[C@@H]2CCCN2C(=O)[C@H](CC(C)C)NC(=O)[C@@H](NC(=O)[C@H](CC(=O)O)NC(=O)CN)CSSC[C@@H]2NC(=O)[C@@H]3CSSC[C@@H](C(=O)N[C@@H](CCCNC(=N)N)C(=O)O)NC(=O)[C@H](CCCNC(=N)N)NC(=O)[C@H](CCCCN)NC(=O)[C@H](C)NC(=O)[C@H](C)NC(=O)[C@H](CC(N)=O)NC(=O)[C@H]([C@@H](C)O)NC(=O)CNC(=O)[C@H](CCCNC(=N)N)NC(=O)[C@H](CCCNC(=N)N)NC(=O)[C@H](CCCCN)NC(=O)[C@H](CSSC[C@H](NC(=O)[C@H](CCCNC(=N)N)NC(=O)[C@H](CCCCN)NC1=O)C(=O)N[C@@H](CCCCN)C(=O)N[C@@H](C)C(=O)N[C@@H](CC(=O)O)C(=O)N[C@@H](CC(N)=O)C(=O)N[C@@H](CC(=O)O)C(=O)N3)NC(=O)[C@H](CCCCN)NC(=O)[C@H](CCCCN)NC(=O)CNC2=O [E29A] (H-GDCLPHLKRCKADNDCCGKKCKRRGTNAAKRCR-OH; disulfide 3-17, 10-21, 16-32)",6.07 ± 4.28 nM
